Laboratory results as given in US20070134349A1, “Methods of treating hematological malignancies” (DUKE UNIVERSITY, priority 2005, published 2007).

Tests used:
NB4 cells [1] = assay: Differentiation markers CD11c/CD11b by flow cytometry in NB4 cells; format: cell-based; details: for NB4 differentiation: FIG. 10; for NB4 cell differentiation (CD11c): 21 h
Description: (§1) NB4 cells were provided by Dr. Ronald Evans (Salk Institute, La Jolla, Calif.). NB4-R4 cells were provided by Dr. Wilson Miller (McGill University, Montreal, Canada). HL-60, U-937, and Kasumi-1 cells were obtained from the American Type Culture Collection (Rockville, Md.). NB4 and NB4-R4 cells were grown in RPMI medium 1640 containing 10% fetal bovine serum. U-937 cells were grown in RPMI medium 1640 containing 10 mM HEPES, 1 mM sodium pyruvate, 4.5 g/L glucose, and 10% fetal bovine serum. HL-60 cells were grown in Iscove's Modified Dulbecco's medium containing 20% fetal bovine serum. Kasumi-1 cells were grown in RPMI medium 1640 containing 10 mM HEPES, 1 mM sodium pyruvate, 4.5 g/L glucose, and 20% fetal bovine serum.
(§2) To determine the percentage of cells that express differentiation markers, cells were washed once and resuspended in RPMI medium 1640 containing 3% fetal bovine serum. Phycoerythrin (PE)-conjugated CD11b, 5 Allophycocyanin (APC)-CD11c or control antibodies (BD Pharmingen, San Diego, Calif.) were added into cell suspension. After 30 minutes of incubation in the dark at 4° C., the cells were washed twice and resuspended in RPMI medium 1640 containing 7-amino actinomycin D (AAD) (for dead cell exclusion) and analyzed by FACScan (Becton Dickinson).

RARE-TK-Luc reporter = RARE-TK-Luc reporter transient transfection in NB4 cells; format: cell-based; details: ATRA 1 μM, 19 h
Description: Electroporation was performed using a Gene Pulser (BioRad, Hercules, Calif.) apparatus at 300 V and 960 μF capacity. […] Cells were harvested 19 h after transfection/treatment for luciferase and β-galactosidase activities.

NB4-R4 cells = assay: CD11c/CD11b expression by flow cytometry in ATRA-resistant NB4-R4 cells; format: cell-based; details: ATRA treatment, 3 days
Description: as §1, §2

PML-RARα = target: T1, PML-RARα (Homo sapiens, UniProt P10276+P29590); assay: Western blot of PML-RARα and RARα in NB4 cells; format: cell-based; details: 3 days
T1 construct: PML portion (fusion partner, UniProt P29590); endogenous in cells; host or cells: NB4 cells
T1 sequence (P29590+P10276 with tags, fused parts or gaps): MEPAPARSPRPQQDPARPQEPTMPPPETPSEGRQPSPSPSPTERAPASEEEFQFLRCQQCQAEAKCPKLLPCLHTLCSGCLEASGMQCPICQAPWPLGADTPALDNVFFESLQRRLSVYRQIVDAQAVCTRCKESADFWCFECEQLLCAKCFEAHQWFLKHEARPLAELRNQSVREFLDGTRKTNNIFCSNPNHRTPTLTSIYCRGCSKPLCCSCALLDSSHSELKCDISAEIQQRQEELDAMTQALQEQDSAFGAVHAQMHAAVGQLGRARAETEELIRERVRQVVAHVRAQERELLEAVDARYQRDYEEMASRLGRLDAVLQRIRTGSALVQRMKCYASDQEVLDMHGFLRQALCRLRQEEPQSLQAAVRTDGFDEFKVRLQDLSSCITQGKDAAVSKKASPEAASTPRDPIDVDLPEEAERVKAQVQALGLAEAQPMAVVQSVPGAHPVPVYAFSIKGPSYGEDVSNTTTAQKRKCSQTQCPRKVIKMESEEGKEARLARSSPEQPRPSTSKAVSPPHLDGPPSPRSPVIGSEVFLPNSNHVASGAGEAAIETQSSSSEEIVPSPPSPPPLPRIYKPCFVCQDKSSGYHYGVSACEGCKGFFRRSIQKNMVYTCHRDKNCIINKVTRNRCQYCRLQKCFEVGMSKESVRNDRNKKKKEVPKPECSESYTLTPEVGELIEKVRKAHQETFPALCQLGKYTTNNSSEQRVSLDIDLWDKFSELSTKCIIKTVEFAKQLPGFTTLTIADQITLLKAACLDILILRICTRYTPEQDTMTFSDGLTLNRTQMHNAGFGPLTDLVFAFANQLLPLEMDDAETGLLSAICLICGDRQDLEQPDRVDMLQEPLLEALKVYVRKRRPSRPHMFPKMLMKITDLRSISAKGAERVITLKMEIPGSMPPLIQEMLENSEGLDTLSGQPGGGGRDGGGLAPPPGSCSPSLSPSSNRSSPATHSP
Description: (§3) Whole-cell lysates were prepared by washing the cells with PBS and resuspending them in 1 ml of lysis buffer (1× phosphate-buffered saline, 1 mM EDTA, 1.5 mg/ml of iodoacetamide, 100 μM sodium orthovanadate, 0.5% Triton X-100, 20 mM β-glycerolphosphate, 0.2 mM phenylmethylsulfonyl fluoride, and 1× complete protease inhibitor cocktail). After clarification by a 15-min centrifugation in a microcentrifuge at 4° C., the resulting supernatant was collected. 20-50 μg of protein extracts were separated on a 10% SDS-polyacrylamide gel and transferred to a nitrocellulose membrane. The membrane was blocked with 5% nonfat milk followed by incubation with antibodies. The immunocomplex was visualized by chemiluminescence.

NB4 cells [2] = assay: Apoptosis by Annexin V binding (flow cytometry) in NB4 cells; format: cell-based
Description: as §1
(§4) To determine the percentage of cells that undergo apoptosis, after incubation with APC-CD11c antibody in the dark at 4° C., cells were washed twice with PBS and incubated at room temperature for 15 min with PE-conjugated Annexin-V (BD Pharmingen) and 7-AAD in binding buffer (10 mM HEPES, pH 7.4, 140 mM NaCI, 2.5 mM CaCl2) and analyzed by FACScan for CD11c expression and Annexin V binding. Apoptotic cells are those that stained positive for Annexin V and negative for 7-AAD.

H3 [3] = assay: Western blot of acetyl-H3 and phospho-H3 in U-937 cells; format: cell-based; details: higher concentrations, 18 h
Description: as §3

H3 [4] = assay: Western blot of phospho-H3 (Ser-10) in NB4 cells; format: cell-based; details: for H3 phosphorylation (Ser-10): NB4 cells, 24 h
Description: as §3

U-937 cells [5] = assay: CD11c expression by flow cytometry in U-937 cells; format: cell-based; details: lower concentrations, 3 days
Description: as §1, §2

histones H3 and H4 = assay: Western blot of acetylated histones H3 and H4 in NB4 cells; format: cell-based; details: concentrations required for apoptosis, NB4 cells, 24 h
Description: as §3

ERK1/2 [6] = assay: Western blot of phospho-ERK1/2 in U-937 cells; format: cell-based; details: higher concentrations, 18 h, total ERK1/2 unaffected
Description: as §3

ERK1/2 [7] = assay: Western blot of phospho-ERK1/2 in NB4 cells; format: cell-based; details: 24 h
Description: as §3

U-937 cells [8] = assay: Annexin V binding in U-937 cells; format: cell-based; details: higher concentrations, 3 days
Description: as §1, §4

[9] = plasma, humans; cited from earlier work
HL-60 cells = assay: CD11c expression by flow cytometry in HL-60 cells; format: cell-based; details: 48 h
Description: as §1, §2

[10] = in humans; cited from earlier work
C/EBPβ = assay: Western blot of phospho-C/EBPβ (Thr-235) and C/EBPβ in NB4 cells; format: cell-based
Description: as §3

Kasumi-1 cells = assay: CD11c expression by flow cytometry in Kasumi-1 cells; format: cell-based; details: 3 days
Description: as §1, §2

[11] = p38 inhibitor treatment of NB4 cells (data not shown)

For `COCCC(=O)O` [3-methoxypropionic acid], which NB4 differentiation (NB4 cells [1]; NB4 cells) is on record?
Its NB4 differentiation is “potent inducers”.

Which “effect on percentage of cells expressing CD11c compared with 1 nM MAA” value (NB4 cells [1]; 0.1 nM ATRA, NB4 cells, 24 h) does the source give for `CC1=C(/C=C/C(C)=C/C=C/C(C)=C/C(=O)O)C(C)(C)CCC1` [ATRA, all-trans-Retinoic acid] here?
The value was “same order of magnitude”.

What about the “percentage of cells expressing CD11b” value (NB4 cells [1]; ATRA 10 nM alone, NB4 cells, 24 h, from 26%) of the same compound?
The value was 51%.

What about the “NB4 cell differentiation (CD11c)” value (NB4 cells [1]; ATRA 1 μM) of the same compound?
The value was “can induce NB4 cell differentiation”.

What about the “transcription of RARE-containing reporter gene (RARE-TK-Luc)” value (RARE-TK-Luc reporter) of the same compound?
Its value is “can activate transcription”.

And the “sensitivity of NB4-R4 cells versus NB4 parental line (CD11c, CD11b)” value (NB4-R4 cells)?
Its value is “less sensitive”.

What about the “expression level of PML-RARα fusion protein” value (PML-RARα) of the same compound?
Its value is “induced the degradation”.

Which results are given for `CCCC(=O)O` [BA, butyric acid]?
apoptosis (Annexin V) (NB4 cells [2]; BA 1 mM, NB4 cells, 21 h): effectively induces apoptosis; differentiation (CD11c) (NB4 cells [1]; BA 0.5 mM and 1 mM, NB4 cells, 24 h): differentiation was observed; NB4 cell differentiation (CD11c) (NB4 cells [1]; BA 1 mM): can induce NB4 cell differentiation; differentiation (CD11c) (NB4 cells [1]; BA 5 mM (or higher), NB4 cells, 24 h): failed to differentiate; NB4 differentiation (NB4 cells [1]; NB4 cells): potent inducers; H3 acetylation and phosphorylation (H3 [3]): increase; H3 phosphorylation (Ser-10) (H3 [4]; higher concentrations): dramatically increased; H3 phosphorylation (Ser-10) (H3 [4]; lower concentrations): without effect; expression of the differentiation marker CD11c (U-937 cells [5]): increasing expression; H3 and H4 acetylation (histones H3 and H4): robust acetylation; activity of ERK1/2 (phospho-ERK1/2) (ERK1/2 [6]): downregulate; levels of phosphorylated ERK (ERK1/2 [7]; higher concentrations (no differentiating effects), total ERK not decreased): dramatically decreased; constitutive levels of phosphorylated ERK (ERK1/2 [7]; lower concentrations): did not change; apoptosis (Annexin V) (U-937 cells [8]): inducing apoptosis; half-life in vivo t1/2 [9]: 6 min; differentiation as evidenced by expression of CD11c (HL-60 cells): induce differentiation; tolerability [10]: well-tolerated; level of phosphorylated C/EBPβ at Thr-235 (C/EBPβ; 17 h): increases phosphorylation; phosphorylation of C/EBPβ at Thr-235 (C/EBPβ; lower concentrations, 24 h): maximal phosphorylation; percentage of cells expressing CD11c (Kasumi-1 cells): increased

What does the source list for `O=C(CCCCCCC(=O)Nc1ccccc1)NO` [SAHA, suberoylanilide hydroxamic acid]?
apoptosis (NB4 cells [2]; SAHA at higher concentrations, NB4 cells (data not shown)): effectively induced apoptosis; differentiation (NB4 cells [1]; SAHA at lower concentrations, NB4 cells (data not shown)): facilitated differentiation

Which results are given for `C[S+]([O-])c1ccc(-c2nc(-c3ccncc3)c(-c3ccc(F)cc3)[nH]2)cc1` (centres unmarked) [SB203580]?
effect on apoptosis (NB4 cells [2]; [11]): little effect; effect on H3 phosphorylation at Ser-10 (H3 [4]; [11]): little effect

With `N#CC(=C(/N)Sc1ccccc1N)/C(C#N)=C(\N)Sc1ccccc1N` [U0126] as the compound, how does the “number of BA-treated cells undergoing apoptosis” value (NB4 cells [2]) read?
Its value is “significantly increased”.

What about the ATRA-induced differentiation (NB4 cells [1]; U0126 pretreatment 2 h, then ATRA 1 μM 21 h, NB4 cells) of the same compound?
Its ATRA-induced differentiation is “less dramatic effect”.

And the “MAA and BA-dependent differentiation as assessed by CD11c expression” value (NB4 cells [1]; U0126 pretreatment 2 h, then MAA 5 mM or BA 1 mM 21 h, NB4 cells)?
The value was “dramatically reduced”.

And the “MAA- or BA-induced phosphorylation of C/EBPβ at Thr-235” value (C/EBPβ; U0126 5 μM, 17 h, absolute protein level unchanged)?
Its value is “blocks”.

With `CCCC(CCC)C(=O)O` [VPA, valproic acid] as the compound, how does the apoptosis (NB4 cells [2]; as concentrations increase, NB4 cells, FIG. 9) read?
The apoptosis was “potently induces apoptosis”.

And the “percentage of NB4 cells expressing CD11c” value (NB4 cells [1]; NB4 cells, FIG. 9)?
The value was “did not significantly increase”.

Which NB4 differentiation (NB4 cells [1]; NB4 cells) does the source give for `CCOCC(=O)O` [ethoxyacetic acid] here?
Its NB4 differentiation is “potent inducers”.

For `CCC(=O)O` [propionic acid], which NB4 differentiation (NB4 cells [1]; NB4 cells) is on record?
The NB4 differentiation was “potent inducers”.

Which “apoptosis of NB4 cells in response to HDACI treatment” value (NB4 cells [2]; tyrosine phosphatase inhibitor treatment (data not shown)) does the source give for `[Na+].[Na+].[Na+].[O]=[V]([O-])([O-])[O-]` [sodium orthovanadate] here?
The value was “did not inhibit”.

What does the source list for Phenylbutyrate?
half-life in vivo t1/2 [9]: 60 min; tolerability [10]: well-tolerated

Which “apoptosis (Annexin V)” value (NB4 cells [2]; ATO 0.1 μM, 0.5 μM alone, NB4 cells, 3 days) does the source give for arsenic trioxide [ATO] here?
Its value is “does not induce significant amount of apoptosis”.

What about the “expression level of PML-RARα fusion protein” value (PML-RARα) of the same compound?
The value was “induced the degradation”.
